Measured values taken from ChEMBL document CHEMBL1148604 (J Med Chem, 2006).
Values after ≈ are worked out from the molar mass of the structure shown. Active and inactive are the calls of the source. The rule behind the calls is not given here.

What was measured:
[1] = target: T1, 3-oxoacyl-[acyl-carrier-protein] synthase 1 (Mycobacterium tuberculosis) (UniProt P9WQD9); assay: Inhibitory activity against KasA from Mycobacterium tuberculosis H37Rv at 100 uM
T1 sequence (whole entry): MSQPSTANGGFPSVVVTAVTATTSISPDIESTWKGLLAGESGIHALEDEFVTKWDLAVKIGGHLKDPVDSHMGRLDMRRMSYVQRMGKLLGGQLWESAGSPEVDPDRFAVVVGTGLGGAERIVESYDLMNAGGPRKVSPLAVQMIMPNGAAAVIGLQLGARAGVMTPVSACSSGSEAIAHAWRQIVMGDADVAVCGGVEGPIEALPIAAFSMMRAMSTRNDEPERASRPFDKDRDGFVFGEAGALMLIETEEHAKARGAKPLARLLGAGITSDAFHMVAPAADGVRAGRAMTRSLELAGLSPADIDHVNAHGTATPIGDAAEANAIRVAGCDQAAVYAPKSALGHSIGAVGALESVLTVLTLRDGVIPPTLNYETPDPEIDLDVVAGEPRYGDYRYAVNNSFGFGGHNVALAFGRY

Escherichia coli = assay: Inhibitory activity against Escherichia coli ANSI; assay type: functional
[2] = target: T2, 3-oxoacyl-[acyl-carrier-protein] synthase 2 (Mycobacterium tuberculosis) (UniProt P9WQD7); assay: Inhibitory activity against KasB from Mycobacterium tuberculosis H37Rv at 100 uM
T2 sequence (whole entry): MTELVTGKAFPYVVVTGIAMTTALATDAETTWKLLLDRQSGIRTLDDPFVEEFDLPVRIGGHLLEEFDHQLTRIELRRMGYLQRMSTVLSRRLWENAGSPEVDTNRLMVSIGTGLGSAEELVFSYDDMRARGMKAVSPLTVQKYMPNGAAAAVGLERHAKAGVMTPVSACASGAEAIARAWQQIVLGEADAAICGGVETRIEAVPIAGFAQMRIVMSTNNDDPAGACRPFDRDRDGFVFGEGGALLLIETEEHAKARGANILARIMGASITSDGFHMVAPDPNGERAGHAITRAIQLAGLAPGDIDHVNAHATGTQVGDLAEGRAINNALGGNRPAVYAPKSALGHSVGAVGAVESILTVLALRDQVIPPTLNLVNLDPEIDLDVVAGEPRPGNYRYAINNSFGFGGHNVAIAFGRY

[3] = target: T3, 3-oxoacyl-[acyl-carrier-protein] synthase 1 (Escherichia coli K-12, UniProt P0A953); assay: Inhibitory activity against FabB from Escherichia coli ANSI
T3 sequence (P0A953 whole entry): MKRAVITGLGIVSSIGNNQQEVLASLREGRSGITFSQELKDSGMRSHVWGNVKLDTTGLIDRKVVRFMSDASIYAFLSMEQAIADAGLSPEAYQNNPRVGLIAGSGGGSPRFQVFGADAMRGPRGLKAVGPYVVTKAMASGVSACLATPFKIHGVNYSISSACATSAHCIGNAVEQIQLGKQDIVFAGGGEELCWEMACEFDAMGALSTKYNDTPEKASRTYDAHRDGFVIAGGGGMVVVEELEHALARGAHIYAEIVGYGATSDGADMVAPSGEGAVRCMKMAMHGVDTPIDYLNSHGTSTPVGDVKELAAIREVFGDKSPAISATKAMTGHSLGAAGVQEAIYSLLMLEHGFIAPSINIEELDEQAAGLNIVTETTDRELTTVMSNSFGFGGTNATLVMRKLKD

[4] = target: T4, 3-oxoacyl-[acyl-carrier-protein] synthase 1 (Escherichia coli K-12) (UniProt P0A953); assay: Inhibitory activity against FabB from Escherichia coli ANSI at 100 uM
T4 sequence (whole entry): T3 sequence (P0A953 whole entry)

[5] = target: T5, 3-oxoacyl-[acyl-carrier-protein] synthase 3 (Escherichia coli, UniProt C3TDZ2); assay: Inhibitory activity against FabH from Escherichia coli ANSI
T5 sequence (C3TDZ2 whole entry): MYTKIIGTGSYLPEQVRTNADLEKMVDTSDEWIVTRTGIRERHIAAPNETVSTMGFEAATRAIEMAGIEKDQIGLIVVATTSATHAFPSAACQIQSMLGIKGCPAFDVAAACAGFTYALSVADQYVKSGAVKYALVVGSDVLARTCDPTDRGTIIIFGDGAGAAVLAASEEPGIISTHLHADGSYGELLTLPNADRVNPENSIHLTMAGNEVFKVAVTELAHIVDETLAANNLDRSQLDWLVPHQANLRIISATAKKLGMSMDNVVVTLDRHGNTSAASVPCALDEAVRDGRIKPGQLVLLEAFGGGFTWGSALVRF

[6] = tested on: Mycobacterium tuberculosis; assay: Inhibitory activity against Mycobacterium tuberculosis H37Rv; assay type: functional
[7] = target: T6, Mycobacterial beta-ketoacyl-[acyl-carrier-protein] synthase III (Mycobacterium tuberculosis, UniProt P9WNG3); assay: Inhibitory activity against FabH from Mycobacterium tuberculosis H37Rv
T6 sequence (P9WNG3 whole entry): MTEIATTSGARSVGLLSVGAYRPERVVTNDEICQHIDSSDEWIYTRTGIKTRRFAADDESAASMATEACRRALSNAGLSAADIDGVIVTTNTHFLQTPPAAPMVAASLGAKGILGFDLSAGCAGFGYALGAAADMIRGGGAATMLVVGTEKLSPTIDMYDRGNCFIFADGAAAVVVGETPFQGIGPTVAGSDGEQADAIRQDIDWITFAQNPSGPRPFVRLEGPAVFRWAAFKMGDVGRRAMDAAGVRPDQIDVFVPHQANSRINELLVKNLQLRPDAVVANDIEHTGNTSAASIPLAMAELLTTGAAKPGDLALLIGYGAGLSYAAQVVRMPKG

[8] = target: T7, 3-oxoacyl-[acyl-carrier-protein] synthase 3 (Escherichia coli) (UniProt C3TDZ2); assay: Inhibitory activity against FabH from Escherichia coli ANSI at 100 uM
T7 sequence (whole entry): T5 sequence (C3TDZ2 whole entry)

[9] = target: T8, Mycobacterial beta-ketoacyl-[acyl-carrier-protein] synthase III (Mycobacterium tuberculosis) (UniProt P9WNG3); assay: Inhibitory activity against FabH from Mycobacterium tuberculosis H37Rv at 100 uM
T8 sequence (whole entry): T6 sequence (P9WNG3 whole entry)

wild-type apo-KasA = wild-type apo-KasA (Mycobacterium tuberculosis, UniProt P9WQD9); assay: Inhibitory activity against KasA from Mycobacterium tuberculosis H37Rv
[10] = target: T9, 3-oxoacyl-[acyl-carrier-protein] synthase 2 (Mycobacterium tuberculosis, UniProt P9WQD7); assay: Inhibitory activity against KasB from Mycobacterium tuberculosis H37Rv
T9 sequence (P9WQD7 whole entry): T2 sequence (whole entry)

Structure (SMILES)	inhibition [1]	MIC (Escherichia coli) [µM]	inhibition [2]	IC50 [3] [µM]	inhibition [4]	IC50 [5] [µM]	MIC [6] [µM]	IC50 [7] [µM]	inhibition [8]	inhibition [9]	IC50 (wild-type apo-KasA) [µM]	IC50 [10] [µM]
CCCCCCCCCCCCCCC1(C)SC(O)=C(C)C1=O (stereo not drawn)	inactive	200 (≈ 68.1 µg/mL)	inactive	> 100	< 30%	100	1000 (≈ 341 µg/mL)	80	–	–	–	–
CC1=C(O)C(C)(C/C=C/c2ccccc2)SC1=O (stereo not drawn)	inactive	> 1000	inactive	–	inactive	–	> 1000	–	inactive	inactive	–	–
CCCCCCCCCCCCC1(C)SC(O)=C(C)C1=O (stereo not drawn)	inactive	25 (≈ 7.81 µg/mL)	inactive	–	inactive	100	1000 (≈ 313 µg/mL)	50	–	–	–	–
CC1=C(O)SC(C)C1=O (stereo not drawn) [THIOLACTONE]	inactive	> 1000	inactive	–	inactive	–	> 1000	–	inactive	inactive	–	–
CC1=C(O)C(C)(C2CCCC2)SC1=O (stereo not drawn)	inactive	> 1000	inactive	–	inactive	–	> 1000	–	inactive	inactive	–	–
C=C(C)CC1(C)SC(O)=C(C)C1=O (stereo not drawn)	inactive	> 1000	inactive	–	inactive	–	> 1000	–	inactive	inactive	–	–
CC(C)=CCC/C(C)=C/CC1(C)SC(O)=C(C)C1=O (stereo not drawn)	inactive	> 1000	inactive	–	inactive	100	> 1000	–	–	inactive	–	–
CC1=C(O)C(C)(Cc2cccc(Cl)c2)SC1=O (stereo not drawn)	–	> 1000	–	> 1000	–	> 1000	1000 (≈ 269 µg/mL)	> 1000	–	–	> 100	> 1000
CC1=C(O)C(C)(Cc2cccc(C(F)(F)F)c2)SC1=O (stereo not drawn)	–	> 1000	–	> 1000	–	> 1000	1000 (≈ 302 µg/mL)	> 1000	–	–	> 1000	> 1000
CC1=C(O)C(C)(CCCc2ccccc2)SC1=O (stereo not drawn)	–	> 1000	–	> 1000	–	> 1000	1000 (≈ 262 µg/mL)	> 1000	–	–	> 1000	> 1000
CCCCCCCCCCC1(C)SC(O)=C(C)C1=O (stereo not drawn)	inactive	100 (≈ 28.4 µg/mL)	inactive	–	inactive	100	500 (≈ 142 µg/mL)	> 100	–	< 30%	–	–
CC1=C(O)C(C)(Cc2ccc(C)cc2)SC1=O (stereo not drawn)	–	> 1000	–	> 1000	–	> 1000	> 1000	> 1000	–	–	> 1000	> 1000
CC1=C(O)C(C)(Cc2ccccc2Cl)SC1=O (stereo not drawn)	–	> 1000	–	> 1000	–	> 1000	1000 (≈ 269 µg/mL)	> 1000	–	–	> 1000	> 1000
